According to US20250179024A1, “AMYLOID AND ASSOCIATED PATHOLOGY MODULATORS AND METHODS THEREOF” (Jawaharlal Nehru Centre for Advanced Scientific Research, priority 2022, published 2025):
pIC50: −log10 of the molar value.

Experiments:
Aβ fibrils = biological target: T1, Aβ fibrils (Homo sapiens, UniProt P05067); experiment: Dot blot assay of Aβ fibrillar aggregation inhibition (OC antibody); assay type: biochemical; conditions: Aβ 10 μM; for inhibition of the formation of Aβ fibrils: NMIs 20 μM, PBS pH 7.4, 37° C., 48 h
T1 construct: is a 42 amino acid proteolytic product from the amyloid precursor protein; purchased Invitrogen
Procedure: Aggregation modulation by toxic Aβ aggregates were assessed and were quantified by dot blot assay. Aβ peptide (10 μM) was dissolved in phosphate buffered saline (PBS, 10 mM, pH 7.4), incubated alone and with NMIs (20 μM) at 37° C. for 48 h. For concentration dependent inhibition, 10 μM Aβ peptide was incubated with 1, 2, 5, 10 and 20 μM of NMIs and incubated. Samples for oligomer inhibition studies were prepared by incubating Aβ alone and with NMIs at 4° C. for 24 and subjected to dot blot analysis. For dissolution studies, Aβ peptide alone was incubated in PBS for 48 h to prepare fibrils and then incubated with NMIs further for 48 h. For dot blot experiment, 5 μL of sample was blotted on activated PVDF (polyvinylidene fluoride) membrane in triplicates and air dried. The membrane was blocked with skimmed milk powder for 1 h at room temperature. The blot paper was washed with tris-buffered saline with 0.01% Tween 20 (TBST) three times for 5 min. Blot paper was treated with fibril specific OC primary antibody (Rabbit, 1:1000 dilution) overnight at 4° C. For oligomers blot A11 anti-oligomer antibody (Rabbit 1:1000) was used. Blot was washed thrice with TBST and treated with HRP-conjugated antirabbit secondary antibody (1:5000 dilutions) for 1 h at room temperature. The bolt was washed thrice for 5 min with TBST and developed with ECL reagent (Biorad) and imaged with ChemiDoc BioRad gel documentation system in autoexposure mode. Blots were analyzed and quantified by ImageJ software. The ability of the NMIs, the compounds of the present disclosure M1-M4 to inhibit Aβ aggregation and dissolve the preformed fibrillar aggregates was evaluated by dot blot assay as explained in Example 2 above. Aβ (10 μM) was incubated alone and with NMIs (20 μM) in phosphate buffer saline (PBS, 10 mM and pH 7.4) at 37° C. for 48 h to form Aβ fibrillar aggregates. The samples were blotted and probed with fibril-selective OC antibody (rabbit anti-human amyloid fibrils). […] M3 was further assessed for inhibitory effect at lower concentrations. […] It has been observed that the oligomers are a highly toxic species compared to Aβ fibrillar aggregates. The ability of NMIs (M3) to inhibit the formation of Aβ oligomers was assessed by dot blot assay. Aβ peptide (10 μM) was incubated with NMIs at 4° C. for 24 h followed by probing with A11 oligomer-specific antibody. […] Native PAGE and western blot analysis was carried out to understand the size distribution of Aβ aggregated species. […] In order to analyse the higher order aggregates not permeable in the gel matrix and the morphological characteristics, Aβ samples were subjected to atomic force microscopy (AFM) imaging.

Aβ42 = biological target: T2, Aβ42 (Homo sapiens, UniProt P05067); experiment: Native PAGE and western blot of Aβ aggregated species; assay type: biochemical; conditions: NMIs 20 μM; for size distribution of Aβ aggregated species, aggregation inhibition: Aβ 10 μM, FIGS. 1B and 2B; for LMW and HMW Aβ aggregates, dissolution samples: Aβ aggregates 10 μM, FIG. 4B
T2 construct: is a 42 amino acid proteolytic product from the amyloid precursor protein; purchased Invitrogen
Procedure: The samples were prepared by incubating Aβ42 with specific concentration of NMI compounds of present disclosure and metal ions for 48 h and then subjected to 6% native polyacrylamide gel electrophoresis (Native-PAGE) in tris-glycine buffer. The lower molecular weight aggregates permeabilized through the gel and resolved in the gel. Higher molecular aggregates stuck in the upper part of wells and potentially carried in gel. Then the protein was transferred to PVDF membrane for 4 h at cold condition maintained using ice cold transfer buffer and immersing the transfer apparatus in ice. Then the blots were continued similar to dot blots. […] It has been observed that the oligomers are a highly toxic species compared to Aβ fibrillar aggregates. The ability of NMIs (M3) to inhibit the formation of Aβ oligomers was assessed by dot blot assay. Aβ peptide (10 μM) was incubated with NMIs at 4° C. for 24 h followed by probing with A11 oligomer-specific antibody. […] Native PAGE and western blot analysis was carried out to understand the size distribution of Aβ aggregated species. […] In order to analyse the higher order aggregates not permeable in the gel matrix and the morphological characteristics, Aβ samples were subjected to atomic force microscopy (AFM) imaging.

[1] = Metal chelation by UV-visible absorbance and fluorescence spectra; assay type: physicochemical; conditions: for interaction with Cu (II) and Zn (II), change in absorbance spectra / chelation among different physiologically relevant metals, absorbance: NMIs 20 μM; for chelation among different physiologically relevant metals, absorbance: metals 40 μM
Description: The compounds of the present disclosure (NMIs) were designed to chelate with metals (Cu and Zn) and alleviate the metal-dependent Aβ toxicity. […] The change in absorbance and fluorescence spectra of NMIs were monitored to understand the interaction with Cu(II) and Zn(II). […] The fluorescence intensity of M3 at 525 nm decreased with the increasing concentration of Cu(II) or Zn(II) (FIGS. 6(A & B)).

[2] = biological target: T3, Aβ in the presence of Cu (II) (Homo sapiens, UniProt P05067); experiment: Cu-dependent Aβ aggregation, native PAGE and western blot; assay type: biochemical; conditions: Aβ 10 μM, Cu (II) 20 μM, NMIs 20 μM, 37° C., 48 h
T3 construct: is a 42 amino acid proteolytic product from the amyloid precursor protein; purchased Invitrogen
Procedure: The samples were prepared by incubating Aβ42 with specific concentration of NMI compounds of present disclosure and metal ions for 48 h and then subjected to 6% native polyacrylamide gel electrophoresis (Native-PAGE) in tris-glycine buffer. The lower molecular weight aggregates permeabilized through the gel and resolved in the gel. Higher molecular aggregates stuck in the upper part of wells and potentially carried in gel. Then the protein was transferred to PVDF membrane for 4 h at cold condition maintained using ice cold transfer buffer and immersing the transfer apparatus in ice. Then the blots were continued similar to dot blots.
The absorbance and fluorescence spectroscopy studies together with mass spectrometry data confirmed the selective Cu (II) or Zn (II) chelation property of M1 and M3. […] Aβ (10 μM) was incubated in the presence of Cu (II) or Zn (II) (20 μM) with NMIs at 37° C. for 48 h and the samples were subjected to native PAGE and western blot analysis. […] Modulation of Zn-dependent Aβ aggregation by M4 was attributed to its two Zn (II) chelation centres. M3 with dopamine and DPA moieties effectively modulated both Cu (II) and Zn (II)-dependent Aβ aggregation. The effect of NMIs on the morphological outcome of metal-dependent Aβ aggregation was visualized by AFM imaging (FIGS. 1E and 1F). Aβ in the presence of Cu (II) and Zn (II) formed dense and thick fibrils.

T2 sequence (P05067 672-713 limits assumed): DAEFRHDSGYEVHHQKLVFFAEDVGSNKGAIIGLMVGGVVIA
T1 sequence (P05067 672-713 limits assumed): as above
T3 sequence (P05067 672-713 limits assumed): as above

SMILES	inhibition of the formation of Aβ fibrils (Aβ fibrils)	size distribution of Aβ aggregated species, aggregation inhibition (Aβ42)	LMW and HMW Aβ aggregates, dissolution samples (Aβ42)	interaction with Cu (II) and Zn (II), change in absorbance spectra ([1]; Cu or Zn 2.5 to 40 μM)	chelation among different physiologically relevant metals, absorbance [1]	formation of Aβ aggregates in the presence of Cu (II) [2]	pIC50 (Aβ fibrils)	inhibition of Aβ aggregation (Aβ fibrils; 0.1 molar ratio)	inhibition of Aβ aggregation (Aβ fibrils; 0.2 molar ratio)	inhibition of Aβ aggregation (Aβ fibrils; 0.5 molar ratio)	inhibition of Aβ aggregation (Aβ fibrils; 1 molar ratio)	inhibition of Aβ aggregation (Aβ fibrils; 2 molar ratio)	fluorescence intensity at 525 nm with increasing concentration of Cu(II) or Zn(II) ([1]; 20 μM, Cu or Zn 2.5 to 40 μM)
CN(C)c1ccc2c3c(cccc13)C(=O)N(CCc1ccc(O)c(O)c1)C2=O [M1, 2-(3,4-dihydroxyphenethyl)-6-(dimethylamino)-1H-benzo[de]isoquinoline-1,3(2H)-dione]	~95%	reduction of different Aβ species	effectively inhibited the formation of LMW and HMW Aβ aggregates	effectively interacted with Cu (II) and Zn (II)	selectively chelated with Cu(II) and Zn (II)	reduced the formation of aggregates	–	–	–	–	–	–	–
O=C1c2cccc3c(N(Cc4ccccn4)Cc4ccccn4)ccc(c23)C(=O)N1CCc1ccc(O)c(O)c1 [M3, 6-(bis(pyridin-2-ylmethyl)amino)-2-(3,4-dihydroxyphenethyl)-1H-benzo[de]isoquinoline-1,3(2H)-dione]	94%	reduction of different Aβ species	effectively inhibited the formation of LMW and HMW Aβ aggregates	effectively interacted with Cu (II) and Zn (II)	selectively chelated with Cu(II) and Zn (II)	reduced the formation of aggregates	6.00	37%	42%	55%	74%	90%	decreased
